Earlier results in US20080063668A1, “Nitroimidazole and terconazole composition and method” (priority 2006, published 2008).
Counter-ions that a name gives are not always drawn.

Conditions: neutral pH; cited from earlier work

Structure (SMILES): CC(C)N1CCN(c2ccc(OCC3COC(Cn4cncn4)(c4ccc(Cl)cc4Cl)O3)cc2)CC1 (stereo not shown) [Terconazole hydrochloride]
- solubility in water: about 0.007 percent by weight
